Source: ChEMBL document CHEMBL3621066, “Vascular barrier protective effects of 3-N- or 3-O-cinnamoyl carbazole derivatives” (Bioorg Med Chem Lett, 2015)

Key:
[1] = test system: HUVEC; test: Antiinflammatory activity in human HUVEC assessed as inhibition of HMGB1-induced human neutrophils migration into cells at 10 uM after 6 hrs using crystal violet staining; assay type: functional
[2] = test system: Mus musculus; test: Antiinflammatory activity in mouse assessed as inhibition of HMGB1-induced leukocyte migration into peritoneal cavity at 342.4 ug/kg administered 16 hrs after HMGB1 challenge measured after 6 hrs by light microscopic analysis; assay type: functional
[3] = test system: HUVEC; test: Cytotoxicity against human HUVEC assessed as cell viability up to 20 uM after 24 hrs; assay type: cell-based
[4] = test system: Mus musculus; test: Antiinflammatory activity in mouse assessed as inhibition of HMGB1-induced hyperpermeability of Evans blue dye to peritoneal cavity at 342.4 ug/kg administered 16 hrs after HMGB1 challenge measured after 6 hrs; assay type: functional
[5] = test system: HUVEC; test: Inhibition of HMGB1-induced hyperpermeability of Evans blue-bound albumin in human HUVEC at 10 uM after 6 hrs by spectrophotometric analysis relative to control; assay type: functional
[6] = test system: Mus musculus; test: Antiinflammatory activity in mouse assessed as inhibition of HMGB1-induced leukocyte migration into peritoneal cavity at 372.4 ug/kg administered 16 hrs after HMGB1 challenge measured after 6 hrs by light microscopic analysis; assay type: functional
[7] = test system: Mus musculus; test: Antiinflammatory activity in mouse assessed as inhibition of HMGB1-induced hyperpermeability of Evans blue dye to peritoneal cavity at 372.4 ug/kg administered 16 hrs after HMGB1 challenge measured after 6 hrs; assay type: functional
[8] = test system: Mus musculus; test: Antiinflammatory activity in mouse assessed as inhibition of HMGB1-induced leukocyte migration into peritoneal cavity at 402.4 ug/kg administered 16 hrs after HMGB1 challenge measured after 6 hrs by light microscopic analysis; assay type: functional
[9] = test system: Mus musculus; test: Antiinflammatory activity in mouse assessed as inhibition of HMGB1-induced hyperpermeability of Evans blue dye to peritoneal cavity at 402.4 ug/kg administered 16 hrs after HMGB1 challenge measured after 6 hrs; assay type: functional
[10] = test system: Mus musculus; test: Antiinflammatory activity in mouse assessed as inhibition of HMGB1-induced hyperpermeability of Evans blue dye to peritoneal cavity at 403.4 ug/kg administered 16 hrs after HMGB1 challenge measured after 6 hrs; assay type: functional
[11] = test system: Mus musculus; test: Antiinflammatory activity in mouse assessed as inhibition of HMGB1-induced leukocyte migration into peritoneal cavity at 403.4 ug/kg administered 16 hrs after HMGB1 challenge measured after 6 hrs by light microscopic analysis; assay type: functional

Structure (SMILES)	inhibition at 10 µM [1]	inhibition in vivo at 0.3424 mg/kg [2]	Activity [3]	inhibition in vivo at 0.3424 mg/kg [4]	inhibition at 10 µM [5]	inhibition in vivo at 0.3724 mg/kg [6]	inhibition in vivo at 0.3724 mg/kg [7]	inhibition in vivo at 0.4024 mg/kg [8]	inhibition in vivo at 0.4024 mg/kg [9]	inhibition in vivo at 0.4034 mg/kg [10]	inhibition in vivo at 0.4034 mg/kg [11]
COc1ccc(/C=C/C(=O)Nc2ccc3[nH]c4ccccc4c3c2)cc1	4.8%	0.8%	Non-toxic	1.4%	3.6%	–	–	–	–	–	–
COc1ccc(/C=C/C(=O)Nc2ccc3[nH]c4ccccc4c3c2)cc1OC	43.5%	–	Non-toxic	–	42.9%	39%	26.2%	–	–	–	–
COc1cc(/C=C/C(=O)Nc2ccc3[nH]c4ccccc4c3c2)cc(OC)c1OC	62%	–	Non-toxic	–	68.4%	–	–	60.3%	57.5%	–	–
COc1cc(/C=C/C(=O)Oc2ccc3[nH]c4ccccc4c3c2)cc(OC)c1OC	65.4%	–	Non-toxic	–	70.2%	–	–	–	–	58.9%	61.2%
